# In patent US6569881B1, “Substituted benzimidazole, the production thereof and the use thereof as means against parasitic protozoa” (Bayer Aktiengesellschaft, priority 1999, dated 2003):
# “And” between values parts separate entries of the source, which are not always exact repeats. Equal values may be shown once.
# Columns and labels:
# Assay type in all cases: in vivo, chicken chicks
# Eimeria tenella = assay: Cage experiments coccidiosis/chicks, Eimeria tenella part of the mixed infection; conditions: for Efficacy against Eimeria tenella (grade): third symbol of cell; as to Efficacy against Eimeria tenella (grade): key: 2 = complete action; 1 = weak action; 0 = inactive; D = death
# Summary of the method: (§1)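 Male chicks 8–12 days old, three per cage, given compound in feed (ppm) from day -3 to 8 (9) days post-infection; infected by crop tube with ~100,000 E. acervulina, ~30,000 E. maxima and 40,000 E. tenella sporulated oocysts. Scored by weight gain, mortality, dropping and lesion scores (0–6), McMaster oocyst counts and sporulation.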
# [1] = tested on: Eimeria acervulina, Eimeria maxima and Eimeria tenella; assay: Cage experiments coccidiosis/chicks, mixed experimental infection
# Summary of the method: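 Male chicks aged 8–12 days, raised coccidia-free, were fed compound in feed (ppm) from day −3 to day 8 (9) p.i. and infected via crop tube with about 100,000 E. acervulina, 30,000 E. maxima and 40,000 E. tenella oocysts. Weight gain, mortality, dropping and lesion scores and oocyst counts were combined into an overall % efficacy.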
# Eimeria acervulina = assay: Cage experiments coccidiosis/chicks, Eimeria acervulina part of the mixed infection; conditions: for Efficacy against Eimeria acervulina (grade): first symbol of cell; as to Efficacy against Eimeria acervulina (grade): key: 2 = complete action; 1 = weak action; 0 = inactive; D = death
# Summary of the method: as §1
# Eimeria maxima = assay: Cage experiments coccidiosis/chicks, Eimeria maxima part of the mixed infection; conditions: for Efficacy against Eimeria maxima (grade): second symbol of cell; as to Efficacy against Eimeria maxima (grade): key: 2 = complete action; 1 = weak action; 0 = inactive; D = death
# Summary of the method: as §1
smiles,measurement,setting,value
"CO[C@@H]1[C@@H](OC)[C@H](C)[C@@](O)(CC(=O)O)O[C@H]1[C@H](C)[C@H]1O[C@@]2(CC[C@@](C)([C@H]3CC[C@@](C)([C@@H]4O[C@@H]([C@H]5O[C@](C)(O)[C@H](C)C[C@@H]5C)C[C@@H]4O[C@@H]4C[C@H](OC)[C@@H](OC)[C@H](C)O4)O3)O2)C[C@H](O)[C@H]1C [MAD, Maduramicin, reference compound]",oocyst in % of inf. control ten.,Eimeria tenella; MAD 1 ppm,56 % of inf. control
same,oocyst in % of inf. control ten.,Eimeria tenella; MAD 2 ppm,82 % of inf. control
same,oocyst in % of inf. control ten.,Eimeria tenella; MAD 3 ppm,6 % of inf. control
same,% efficacy tot.,[1]; 1 ppm in feed,38%
same,mortality %,[1]; 1 ppm in feed,0%
same,mortality n (died/employed),[1]; 1 ppm in feed,0/3
same,weight % of not inf. control,[1]; 1 ppm in feed,77% and 56%
same,lesion score,"[1]; 1 ppm in feed, grade 0 to 6",5 and 6
same,% efficacy tot.,[1]; 2 ppm in feed,55% and 32%
same,mortality %,[1]; 2 ppm in feed,0%
same,mortality n (died/employed),[1]; 2 ppm in feed,0/3
same,weight % of not inf. control,[1]; 2 ppm in feed,74% and 60%
same,lesion score,"[1]; 2 ppm in feed, grade 0 to 6",3 and 6
same,% efficacy tot.,[1]; 3 ppm in feed,61% and 93%
same,mortality n (died/employed),[1]; 3 ppm in feed,0/3 and 1/3
same,weight % of not inf. control,[1]; 3 ppm in feed,76% and 92%
same,dropping scores,"[1]; 3 ppm in feed, grade 0 to 6",0
same,lesion score,"[1]; 3 ppm in feed, grade 0 to 6",1
same,% efficay tot.,[1]; MAD 1 ppm,7%
same,dropping scores,[1]; MAD 1 ppm,6
same,lesion score,[1]; MAD 1 ppm,6
same,mortality %,[1]; MAD 1 ppm,0%
same,mortality n,[1]; MAD 1 ppm,0/3
same,oocyst in % of inf. control tot.,[1]; MAD 1 ppm,29 % of inf. control
same,weight % of not inf. control,[1]; MAD 1 ppm,59 % of not inf. control
same,% efficay tot.,[1]; MAD 2 ppm,17%
same,dropping scores,[1]; MAD 2 ppm,6
same,lesion score,[1]; MAD 2 ppm,5
same,mortality %,[1]; MAD 2 ppm,0%
same,mortality n,[1]; MAD 2 ppm,0/3
same,oocyst in % of inf. control tot.,[1]; MAD 2 ppm,48 % of inf. control
same,weight % of not inf. control,[1]; MAD 2 ppm,63 % of not inf. control
same,% efficay tot.,[1]; MAD 3 ppm,60%
same,dropping scores,[1]; MAD 3 ppm,6
same,lesion score,[1]; MAD 3 ppm,2.7
same,mortality %,[1]; MAD 3 ppm,33%
same,mortality n,[1]; MAD 3 ppm,0/3
same,oocyst in % of inf. control tot.,[1]; MAD 3 ppm,9 % of inf. control
same,weight % of not inf. control,[1]; MAD 3 ppm,90 % of not inf. control
same,oocyst in % of inf. control ac.,Eimeria acervulina; 1 ppm in feed,60% and >100%
same,oocyst in % of inf. control ac.,Eimeria acervulina; MAD 1 ppm,39 % of inf. control
same,oocyst in % of inf. control ac.,Eimeria acervulina; MAD 2 ppm,27 % of inf. control
same,oocyst in % of inf. control ac.,Eimeria acervulina; MAD 3 ppm,11 % of inf. control
same,oocyst in % of inf. control max.,Eimeria maxima; 3 ppm in feed,0%
same,oocyst in % of inf. control max.,Eimeria maxima; MAD 1 ppm,86 % of inf. control
same,oocyst in % of inf. control max.,Eimeria maxima; MAD 2 ppm,>100 % of inf. control
same,oocyst in % of inf. control max.,Eimeria maxima; MAD 3 ppm,14 % of inf. control
Cc1oc(=O)oc1Cn1c(C(F)(F)F)nc2c(Br)cc3c(c21)OC(F)(F)C(F)(F)O3 [Example 14],oocyst in % of inf. control ten.,Eimeria tenella; 2.5 ppm in feed,12%
same,oocyst in % of inf. control ten.,Eimeria tenella; 5 ppm,44 % of inf. control
same,oocyst in % of inf. control ten.,Eimeria tenella; 5 ppm in feed,1%
same,oocyst in % of inf. control ten.,Eimeria tenella; 7.5 ppm,15 % of inf. control
same,oocyst in % of inf. control ten.,Eimeria tenella; 10 ppm,26 % of inf. control
same,oocyst in % of inf. control ten.,Eimeria tenella; 10 ppm in feed,7%
same,Efficacy against Eimeria tenella (grade),Eimeria tenella; Dose 5 ppm,1
same,Efficacy against Eimeria tenella (grade),Eimeria tenella; Dose 10 ppm,1
same,% efficacy tot.,[1]; 2.5 ppm in feed,30%
same,mortality %,[1]; 2.5 ppm in feed,0%
same,mortality n (died/employed),[1]; 2.5 ppm in feed,0/3
same,oocyst in % of inf. control tot.,[1]; 2.5 ppm in feed,35%
same,weight % of not inf. control,[1]; 2.5 ppm in feed,44%
same,dropping scores,"[1]; 2.5 ppm in feed, grade 0 to 6",6
same,lesion score,"[1]; 2.5 ppm in feed, grade 0 to 6",6
same,% efficay tot.,[1]; 5 ppm,0%
same,dropping scores,[1]; 5 ppm,6
same,lesion score,[1]; 5 ppm,6
same,mortality %,[1]; 5 ppm,33%
same,mortality n,[1]; 5 ppm,1/3
same,oocyst in % of inf. control tot.,[1]; 5 ppm,67 % of inf. control
same,weight % of not inf. control,[1]; 5 ppm,29 % of not inf. control
same,% efficacy tot.,[1]; 5 ppm in feed,66%
same,mortality %,[1]; 5 ppm in feed,33%
same,mortality n (died/employed),[1]; 5 ppm in feed,1/3
same,oocyst in % of inf. control tot.,[1]; 5 ppm in feed,2%
same,weight % of not inf. control,[1]; 5 ppm in feed,90.6%
same,dropping scores,"[1]; 5 ppm in feed, grade 0 to 6",6
same,lesion score,"[1]; 5 ppm in feed, grade 0 to 6",5.5
same,% efficay tot.,[1]; 7.5 ppm,45%
same,dropping scores,[1]; 7.5 ppm,6
same,lesion score,[1]; 7.5 ppm,6
same,mortality %,[1]; 7.5 ppm,0%
same,mortality n,[1]; 7.5 ppm,0/3
same,oocyst in % of inf. control tot.,[1]; 7.5 ppm,15 % of inf. control
same,weight % of not inf. control,[1]; 7.5 ppm,61 % of not inf. control
same,% efficay tot.,[1]; 10 ppm,45%
same,dropping scores,[1]; 10 ppm,3
same,lesion score,[1]; 10 ppm,6
same,mortality %,[1]; 10 ppm,0%
same,mortality n,[1]; 10 ppm,0/3
same,oocyst in % of inf. control tot.,[1]; 10 ppm,16 % of inf. control
same,weight % of not inf. control,[1]; 10 ppm,79 % of not inf. control
same,% efficacy tot.,[1]; 10 ppm in feed,69%
same,mortality %,[1]; 10 ppm in feed,0%
same,mortality n (died/employed),[1]; 10 ppm in feed,0/3
same,oocyst in % of inf. control tot.,[1]; 10 ppm in feed,4%
same,weight % of not inf. control,[1]; 10 ppm in feed,81%
same,dropping scores,"[1]; 10 ppm in feed, grade 0 to 6",4
same,lesion score,"[1]; 10 ppm in feed, grade 0 to 6",6
same,oocyst in % of inf. control ac.,Eimeria acervulina; 2.5 ppm in feed,92%
same,oocyst in % of inf. control ac.,Eimeria acervulina; 5 ppm,80 % of inf. control
same,oocyst in % of inf. control ac.,Eimeria acervulina; 5 ppm in feed,3%
same,oocyst in % of inf. control ac.,Eimeria acervulina; 7.5 ppm,16 % of inf. control
same,oocyst in % of inf. control ac.,Eimeria acervulina; 10 ppm,2 % of inf. control
same,oocyst in % of inf. control ac.,Eimeria acervulina; 10 ppm in feed,1%
same,Efficacy against Eimeria acervulina (grade),Eimeria acervulina; Dose 5 ppm,2
same,Efficacy against Eimeria acervulina (grade),Eimeria acervulina; Dose 10 ppm,2
same,oocyst in % of inf. control max.,Eimeria maxima; 2.5 ppm in feed,0%
same,oocyst in % of inf. control max.,Eimeria maxima; 5 ppm,57 % of inf. control
same,oocyst in % of inf. control max.,Eimeria maxima; 5 ppm in feed,6%
same,oocyst in % of inf. control max.,Eimeria maxima; 7.5 ppm,1 % of inf. control
same,oocyst in % of inf. control max.,Eimeria maxima; 10 ppm,>100 % of inf. control
same,oocyst in % of inf. control max.,Eimeria maxima; 10 ppm in feed,0%
same,Efficacy against Eimeria maxima (grade),Eimeria maxima; Dose 5 ppm,2
same,Efficacy against Eimeria maxima (grade),Eimeria maxima; Dose 10 ppm,2
